Test: Seeded continuous crystallization in a microfluidic device; growth rates from optical images
Settings: room temperature, water/ethanol antisolvent
[1] = Supersaturation S = ln(C/Cs,γ) = 0.319

NCC(=O)O [β-Glycine, glycine]
G<010> experimental growth rate (S = ln(C/Cs,α) = 0.30): 194 ± 55 μm/min | G<010> experimental growth rate (S = ln(C/Cs,α) = 0.39): 235 ± 43 μm/min | G<010> experimental growth rate (S = ln(C/Cs,α) = 0.47): 250 ± 52 μm/min

NCC(=O)O [α-Glycine, glycine]
G<010>,exp growth rate of <010> crystal plane (S = ln(C/Cs,α) = 0.33): 0.40 ± 0.25 μm/min | G<011>, exp growth rate of <011> crystal plane (S = ln(C/Cs,α) = 0.33): 2.22 ± 0.91 μm/min | G<010>,exp growth rate of <010> crystal plane (S = ln(C/Cs,α) = 0.56): 0.74 ± 0.16 μm/min | G<011>, exp growth rate of <011> crystal plane (S = ln(C/Cs,α) = 0.56): 3.34 ± 0.43 μm/min | G<010>,exp growth rate of <010> crystal plane (S = ln(C/Cs,α) = 0.64): 0.66 ± 0.23 μm/min | G<011>, exp growth rate of <011> crystal plane (S = ln(C/Cs,α) = 0.64): 4.78 ± 1.35 μm/min

NCC(=O)O [γ-Glycine, glycine]
G<00-1>,exp growth rate [1]: 4.4 ± 1.8 μm/min | G{100, 010},exp growth rate [1]: 3.2 ± 1.6 μm/min | G{100, 010},exp growth rate (Supersaturation S = ln(C/Cs,γ) = 0.389): 5.5 ± 1.6 μm/min

From patent US20100298602A1, “SYSTEMS AND METHODS FOR MICROFLUIDIC CRYSTALLIZATION” (Massachusetts Institute of Technology, priority 2009, published 2010)
